Where two headings read alike, the source gives them in different places.
Legend:
SARS-CoV-2 = assay: microbe, parasite or virus in culture; type: cell-based, SARS-CoV-2 (βCoV/KOR/KCDC03/2020)
CBR2 = CBR2 (Homo sapiens, UniProt P34972); conditions: reported (Pertwee 2008); cited from earlier work
[1] = 0.3 mg/kg/day, report; cited from earlier work
[2] = 100 mg of CBD, healthy volunteers, reported; cited from earlier work
Vero cells = assay: Vero cell viability in the dose-response curve assay; type: cell-based
Protocol: Dose-response curve (DRC) analysis was performed according to a conventionally known method (Jeon, S., Ko, M., Lee, J., Choi, I., Byun, S Y, Park, S., Shum, D., and Kim, S. (2020). Identification of antiviral drug candidates against SARS-CoV-2 from FDA-approved drugs. Antimicrobial Agents and Chemotherapy). Briefly, the Vero cells were seeded at 1.2×10^4 cells per well in DMEM containing 1× Antibiotic-Antimycotic solution (Gibco) and 2% FBS in a 384-well, μClear plate (Greiner Bio-One) and maintained for 24 h. After that, the cells were treated twice with compounds in the concentration range of 0.05-100 μM. A 9-point dose-response curve (DRC) was generated. For viral infection, the plate was transferred to a BSL-3 isolation facility and SARS-CoV-2 was added to an MOI value of 0.0125. Next, the cells were fixed at 24 hpi with 4% PFA and measured using the immunofluorescence method Operetta (Perkin Elmer).
Images acquired using software within the Pasteur Institute in Korea were used to estimate the infection rate and cell number, and antiviral activity was normalized to negative (0.5% DMSO) and positive controls (mock). The dose-response curve (DRC) was measured using the sigmoidal dose-response model Y=Bottom+(Top−Bottom)/(1+(IC50/X)^Hillslope) using Prism or 7XLfit 4 software. Finally, IC50 values were measured for curves fitted to the normalized activity data set. […]

[3] = cited from earlier work
[4] = Severe acute respiratory syndrome coronavirus 2, Vero; read-out: IC50, antiviral activity against SARS-CoV-2

Chain of CBR2 (P34972 whole entry): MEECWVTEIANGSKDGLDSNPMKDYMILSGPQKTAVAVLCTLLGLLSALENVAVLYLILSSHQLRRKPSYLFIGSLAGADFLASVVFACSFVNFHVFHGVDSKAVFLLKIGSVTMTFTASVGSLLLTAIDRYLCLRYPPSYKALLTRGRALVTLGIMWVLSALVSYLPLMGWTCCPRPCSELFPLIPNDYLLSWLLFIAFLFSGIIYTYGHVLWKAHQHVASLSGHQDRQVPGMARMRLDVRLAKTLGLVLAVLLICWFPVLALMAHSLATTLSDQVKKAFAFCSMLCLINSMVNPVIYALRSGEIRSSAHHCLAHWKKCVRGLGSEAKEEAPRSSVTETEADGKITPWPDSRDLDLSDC

In the case of `CCCCCc1cc2c(c(O)c1C(=O)O)[C@@H]1C=C(C)CC[C@H]1C(C)(C)O2` [Compound T3, Δ9-Tetrahydrocannabinolic acid], the IC50 (SARS-CoV-2; [4]) is reported as 13.2 µM.
In the case of `CCCCCc1cc(O)c2c(c1)OC(C)(C)[C@@H]1CCC(C)=C[C@@H]21` [Compound T4, Δ^9-Tetrahydrocannabinol], the “action at CBR2” value (CBR2) is given as “partial agonist” and the IC50 (SARS-CoV-2; [4]) is given as 10.2 µM.
With `CCCCCc1cc(O)c2c(c1)OC(C)(C)c1ccc(C)cc1-2` [Compound T7, Cannabinol] the IC50 (SARS-CoV-2; [4]) was 11.1 µM.
In the case of `C=C(C)[C@@H]1CCC(C)=C[C@H]1c1c(O)cc(CCCCC)cc1O` [Compound T22, Cannabidiol], the “effect in Crohn's disease” value [1] is given as “effective”, the safety and tolerability [2] is given as “safe and tolerable” and the IC50 (SARS-CoV-2; [4]) is given as 7.91 µM. For the same compound, the inhibition at 12.5 µM (SARS-CoV-2; Severe acute respiratory syndrome coronavirus 2; at 12.50 μM, Vero cells) was 99.2%, the Vero cell viability (Vero cells; at 12.50 μM) was 97.46% and the host cell viability (Vero cells; at 50 μM) was “decreased sharply”. The “dose reported to be safe” value [3] was “up to 60 mg per day”.
Compound `C=C(C)[C@@H]1CCC(C)=C[C@H]1c1c(O)cc(CCCCC)c(C(=O)O)c1O` [Compound T23, Cannabidiolic acid] has an IC50 (SARS-CoV-2; [4]) of 37.6 µM.
Work on `CCN(CC)CCCC(C)Nc1ccnc2cc(Cl)ccc12` (stereo not drawn) [chloroquine, reference compound] yielded an IC50 (SARS-CoV-2; [4]) of 8.17 µM.
Work on `Cc1cccc(C)c1OCC(=O)N[C@@H](Cc1ccccc1)[C@@H](O)C[C@H](Cc1ccccc1)NC(=O)[C@H](C(C)C)N1CCCNC1=O` [lopinavir, reference compound] yielded an IC50 (SARS-CoV-2; [4]) of 9.78 µM.
`CCC(CC)COC(=O)[C@H](C)N[P@](=O)(OC[C@H]1O[C@@](C#N)(c2ccc3c(N)ncnn23)[C@H](O)[C@@H]1O)Oc1ccccc1` [remdesivir, reference compound] showed an IC50 (SARS-CoV-2; Severe acute respiratory syndrome coronavirus 2, Vero, read-out: IC50, antiviral activity against SARS-CoV-2) of 13.2 µM.

— patent publication US11707444B2, “Antiviral composition for SARS-CoV-2 containing cannabinoids as active ingredient” (priority 2020, dated 2023)
